According to patent US8129398B2 (priority 2008, dated 2012):

target: T1, HIV-integrase (Human immunodeficiency virus type 1 group M subtype B, UniProt P12497); assay: HIV-Integrase Inhibition Activity (SPA bead integration assay with P33 labeled target DNA); type: biochemical; conditions: recombinant integrase, class symbols; read-out: in vitro activity
T1 construct: Recombinant integrase (0.26 ng) was incubated with the beads
Method in brief: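 Strand integration read as bead-proximity CPM after P33 target DNA (0.1 fmol) and inhibitor were added to washed integrase–substrate DNA complexes on SPA beads. Enzyme bound 90 min at 37° C; EDTA (10 mM final) terminated reaction; IC50 graded A/B/C.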

| SMILES | IC50 |
| --- | --- |
| Cc1cc(CNC(=O)c2nc3n(c(=O)c2O)CC2CCC3(NC(=O)C(C)(C)n3cc(C(=O)N(C)C)nn3)CC2)ccc1F [Example 287, 7,10-Ethanopyrimido[1,2-a]azepine-2-carboxamide, 10-[[2-[4-[(dimethylamino)carbonyl]-1H-1,2,3-triazol-1-yl]-2-methyl-1-oxopropyl]amino]-N-[(4-fluoro-3-methylphenyl)methyl]-4,6,7,8,9,10-hexahydro-3-hydroxy-4-oxo-] | < 10 nM |
| O=C(NC12CCC(CC1)Cn1c2nc(C(=O)NCc2ccc(F)cc2)c(O)c1=O)C(=O)N1CCN(CCO)CC1 [Example 72, N-(4-Fluorobenzyl)-3-hydroxy-10-(((4-(2-hydroxyethyl)-1-piperazinyl)(oxo)acetyl)amino)-4-oxo-4,6,7,8,9,10-hexahydro-7,10-ethanopyrimido[1,2-a]azepine-2-carboxamide] | < 10 nM |
| O=C(NC12CCC(CC1)Cn1c2nc(C(=O)NCc2ccc(F)cc2)c(O)c1=O)C(=O)N1CCN(S(=O)(=O)c2ccc(S(=O)(=O)N3CCOCC3)cc2)CC1 [Example 149, N-(4-Fluorobenzyl)-3-hydroxy-10-(((4-((4-(4-morpholinylsulfonyl)phenyl)sulfonyl)-1-piperazinyl)(oxo)acetyl)amino)-4-oxo-4,6,7,8,9,10-hexahydro-7,10-ethanopyrimido[1,2-a]azepine-2-carboxamide] | < 10 nM |
| COC[C@@H]1CCCN1C(=O)C(=O)NC12CCC(CC1)Cn1c2nc(C(=O)NCc2ccc(F)cc2)c(O)c1=O [Example 89, N-(4-Fluorobenzyl)-3-hydroxy-10-((((2S)-2-(methoxymethyl)-1-pyrrolidinyl)(oxo)acetyl)amino)-4-oxo-4,6,7,8,9,10-hexahydro-7,10-ethanopyrimido[1,2-a]azepine-2-carboxamide] | < 10 nM |
| CN(C)C(=O)C(=O)NC12CCC(CC1)Cn1c2nc(C(=O)NCc2ccccn2)c(O)c1=O [Example 363] | 10 to 100 nM |
| CC(C)CNC(=O)c1nc2n(c(=O)c1O)CC1CCC2(NC(=O)C(=O)N(C)C)CC1 [Example 341] | > 100 nM |
| CN(C)C(=O)C(=O)NC12CCC(CC1)Cn1c2nc(C(=O)NCc2ccc(S(N)(=O)=O)cc2)c(O)c1=O [Example 379] | < 10 nM |
| C[C@@H]1CN(C(=O)C(=O)NC23CCC(CC2)Cn2c3nc(C(=O)NCc3ccc(F)cc3)c(O)c2=O)C[C@H](C)O1 [Example 64, 10-((((2R,6S)-2,6-Dimethyl-4-morpholinyl)(oxo)acetyl)amino)-N-(4-fluorobenzyl)-3-hydroxy-4-oxo-4,6,7,8,9,10-hexahydro-7,10-ethanopyrimido[1,2-a]azepine-2-carboxamide] | < 10 nM |
| CN(CC1CCCO1)C(=O)C(=O)NC12CCC(CC1)Cn1c2nc(C(=O)NCc2ccc(F)cc2)c(O)c1=O (stereo not drawn) [Example 94, N′-(2-((4-Fluorobenzyl)carbamoyl)-3-hydroxy-4-oxo-6,7,8,9-tetrahydro-7,10-ethanopyrimido[1,2-a]azepin-10(4H)-yl)-N-methyl-N-(tetrahydro-2-furanylmethyl)ethanediamide] | < 10 nM |
| O=C(NC12COC(CCn3c1nc(C(=O)NCc1ccc(F)cc1)c(O)c3=O)C2)OCc1ccccc1 (stereo not drawn) [Example 217, Benzyl (2-((4-fluorobenzyl)carbamoyl)-3-hydroxy-4-oxo-7,8-dihydro-4 H,6H-8,11-methanopyrimido[2,1-d][1,5]oxazocin-11(10H)-yl)carbamate] | < 10 nM |
| CN(C)C(=O)C(=O)NC12CCC(C)(CC1)Cn1c2nc(C(=O)NCc2ccc(F)cc2)c(O)c1=O [Example 180, Ethanediamide, N′-[2-[[[(4-fluorophenyl)methyl]amino]carbonyl]-6,7,8,9-tetrahydro-3-hydroxy-7-methyl-4-oxo-7,10-ethanopyrimido[1,2-a]azepin-10(4H)-yl]-N,N-dimethyl-] | < 10 nM |
| CN(C)C(=O)C(=O)NC12CCC(CC1)Cn1c2nc(C(=O)NCCNc2ccccc2)c(O)c1=O [Example 342] | 10 to 100 nM |
